For assay [1], the target named is PIK3CG (human) (UniProt P48736). The assay can be described thus: Assessment of PI3KCG Kinase Activity.
Assay [2] deals with PIK3CD (Human) (UniProt O00329). The assay can be described thus: Assessment of PI3KCD Kinase Activity.

Structures are written as SMILES.

Chain of PIK3CG (human) (P48736 whole entry, looked up): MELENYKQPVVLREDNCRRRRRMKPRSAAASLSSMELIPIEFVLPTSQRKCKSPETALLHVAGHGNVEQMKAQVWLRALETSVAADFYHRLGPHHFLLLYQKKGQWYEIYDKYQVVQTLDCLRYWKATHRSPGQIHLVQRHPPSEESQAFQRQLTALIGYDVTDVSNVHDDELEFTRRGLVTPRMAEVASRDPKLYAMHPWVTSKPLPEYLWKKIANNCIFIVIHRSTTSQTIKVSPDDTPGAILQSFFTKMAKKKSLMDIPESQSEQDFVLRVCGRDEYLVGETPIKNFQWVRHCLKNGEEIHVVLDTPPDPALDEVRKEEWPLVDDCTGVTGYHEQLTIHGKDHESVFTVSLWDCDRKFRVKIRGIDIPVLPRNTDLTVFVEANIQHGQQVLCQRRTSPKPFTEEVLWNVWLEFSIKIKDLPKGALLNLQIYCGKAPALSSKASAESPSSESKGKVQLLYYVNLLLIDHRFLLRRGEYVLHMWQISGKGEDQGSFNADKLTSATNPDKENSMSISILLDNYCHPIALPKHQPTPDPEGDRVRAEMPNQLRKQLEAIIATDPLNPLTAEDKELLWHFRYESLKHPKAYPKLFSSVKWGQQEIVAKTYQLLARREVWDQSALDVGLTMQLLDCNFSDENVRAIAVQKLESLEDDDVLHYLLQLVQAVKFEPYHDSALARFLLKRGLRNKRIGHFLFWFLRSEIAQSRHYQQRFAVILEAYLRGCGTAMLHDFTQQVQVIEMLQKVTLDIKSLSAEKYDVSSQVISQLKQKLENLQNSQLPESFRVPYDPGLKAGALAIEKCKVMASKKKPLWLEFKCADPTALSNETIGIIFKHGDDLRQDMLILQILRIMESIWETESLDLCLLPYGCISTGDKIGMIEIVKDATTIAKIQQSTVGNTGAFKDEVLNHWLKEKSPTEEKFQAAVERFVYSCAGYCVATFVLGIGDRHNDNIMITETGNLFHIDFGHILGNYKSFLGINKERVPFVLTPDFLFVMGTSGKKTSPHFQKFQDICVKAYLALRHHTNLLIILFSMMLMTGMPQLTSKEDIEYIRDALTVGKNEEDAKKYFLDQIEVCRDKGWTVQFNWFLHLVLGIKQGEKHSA
Chain of PIK3CD (Human) (O00329 whole entry, looked up): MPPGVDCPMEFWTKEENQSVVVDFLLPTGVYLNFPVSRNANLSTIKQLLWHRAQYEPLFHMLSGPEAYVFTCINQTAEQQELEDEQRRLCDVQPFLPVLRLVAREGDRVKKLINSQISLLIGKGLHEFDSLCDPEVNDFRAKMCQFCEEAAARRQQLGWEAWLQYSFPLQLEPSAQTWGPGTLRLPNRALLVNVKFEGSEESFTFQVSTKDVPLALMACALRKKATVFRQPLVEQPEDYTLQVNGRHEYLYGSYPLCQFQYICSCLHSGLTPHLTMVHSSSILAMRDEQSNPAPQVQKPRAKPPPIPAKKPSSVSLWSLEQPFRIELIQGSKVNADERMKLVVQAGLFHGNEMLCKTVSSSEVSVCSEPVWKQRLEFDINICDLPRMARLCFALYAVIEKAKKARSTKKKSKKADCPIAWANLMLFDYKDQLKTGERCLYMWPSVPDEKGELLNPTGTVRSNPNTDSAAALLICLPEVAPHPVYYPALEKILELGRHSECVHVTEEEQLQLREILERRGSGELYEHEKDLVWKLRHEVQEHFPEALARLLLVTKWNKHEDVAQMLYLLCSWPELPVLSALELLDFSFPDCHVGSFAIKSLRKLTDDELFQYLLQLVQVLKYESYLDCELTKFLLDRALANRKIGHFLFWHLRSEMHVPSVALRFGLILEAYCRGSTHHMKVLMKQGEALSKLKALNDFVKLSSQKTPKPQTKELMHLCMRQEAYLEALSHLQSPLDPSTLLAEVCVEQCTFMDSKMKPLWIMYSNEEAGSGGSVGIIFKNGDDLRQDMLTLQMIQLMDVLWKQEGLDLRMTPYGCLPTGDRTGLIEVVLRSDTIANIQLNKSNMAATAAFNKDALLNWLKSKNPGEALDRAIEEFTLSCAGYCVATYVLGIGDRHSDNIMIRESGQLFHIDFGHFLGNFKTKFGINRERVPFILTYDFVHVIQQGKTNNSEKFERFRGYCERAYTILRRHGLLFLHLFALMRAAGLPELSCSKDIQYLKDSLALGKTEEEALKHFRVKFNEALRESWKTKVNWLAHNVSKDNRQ

Consider `Cc1csc2nc(Cn3nc(I)c4c(N)ncnc43)n(-c3ccccc3C(C)C)c(=O)c12`, for which the IC50 in assay [1] and in assay [2] was below 100 nM in each case.
Take `Cc1csc2nc(Cn3nc(Br)c4c(N)ncnc43)n(-c3ccccc3C(C)C)c(=O)c12`: the IC50 in assay [1] and in assay [2] was below 100 nM throughout.
Turning to `COc1cc(-c2nn(Cc3cc4cccc(C)c4c(=O)n3-c3ccccc3C)c3ncnc(N)c23)ccc1Cl`, the IC50 – broadly, the concentration that gives 50% inhibition – in assay [1] was below 100 nM.
Same read-out and setting: to `Cc1ccccc1-n1c(Cn2nc(-c3ccc(O)cc3)c3c(N)ncnc32)cc2cccc(C)c2c1=O` belongs below 100 nM.
`Cc1cccnc1-n1c(Cn2nc(-c3ccc(Cl)c(O)c3)c3c(N)ncnc32)cc2cccc(C)c2c1=O`: the IC50 in assay [1] and in assay [2] was below 100 nM each time.
As to `Cc1cccc2cc(Cn3nc(-c4cccc(O)c4)c4c(N)ncnc43)n(-c3ccccc3C(C)C)c(=O)c12`, the IC50 in assay [1] and in assay [2] was below 100 nM each time.
With `Cc1ccccc1-n1c(Cn2nc(-c3ccc(O)c(Cl)c3)c3c(N)ncnc32)cc2cccc(C)c2c1=O`, the IC50 in assay [1] and in assay [2] was below 100 nM each time.
`Cc1cccnc1-n1c(Cn2nc(-c3cc(O)cc(F)c3)c3c(N)ncnc32)cc2cccc(C)c2c1=O`: the IC50 in assay [1] and in assay [2] was below 100 nM in each case.
In the case of `COc1ccccc1-n1c(Cn2nc(-c3cc(O)cc(F)c3)c3c(N)ncnc32)nc2scc(C)c2c1=O`, the IC50 in assay [1] and in assay [2] was below 100 nM throughout.
For `Cc1csc2nc(Cn3nc(-c4ccc(O)c(F)c4)c4c(N)ncnc43)n(-c3ccccc3F)c(=O)c12`, the IC50 in assay [1] was below 100 nM.
As to `COc1ccccc1-n1c(Cn2nc(-c3cc(O)cc(F)c3)c3c(N)ncnc32)cc2cccc(C)c2c1=O`, the IC50 in assay [1] and in assay [2] was below 100 nM in each case.
Consider `Cc1ccccc1-n1c(Cn2nc(-c3ccc4nc(N)sc4c3)c3c(N)ncnc32)cc2cccc(C)c2c1=O`, for which the IC50 in assay [1] and in assay [2] was below 100 nM each time.
Take `Cc1csc2nc(Cn3nc(-c4cc(O)cc(F)c4)c4c(N)ncnc43)n(-c3ccccc3F)c(=O)c12`: the IC50 in assay [1] and in assay [2] was below 100 nM each time.
As to `CC(=O)Nc1nc2ccc(-c3nn(Cc4cc5cccc(C)c5c(=O)n4-c4cccc(F)c4)c4ncnc(N)c34)cc2s1`, the IC50 in assay [1] and in assay [2] was below 100 nM each time.
Regarding `CC(=O)Nc1nc2ccc(-c3nn(Cc4cc5ccccc5c(=O)n4-c4ccccc4C)c4ncnc(N)c34)cc2s1`, the IC50 in assay [1] and in assay [2] was below 100 nM each time.
Regarding `Cc1ccccc1-n1c(Cn2nc(-c3ccc(F)c(O)c3)c3c(N)ncnc32)cc2cccc(F)c2c1=O`, the IC50 in assay [1] and in assay [2] was below 100 nM throughout.
Take `Cc1cccc2cc(Cn3nc(C#C[C@@H](C)O)c4c(N)ncnc43)n(-c3ccccc3C(C)C)c(=O)c12`: the IC50 in assay [1] and in assay [2] was below 100 nM throughout.
For the compound `Cc1ccccc1-n1c(Cn2nc(-c3ccc(Cl)c(O)c3)c3c(N)ncnc32)cc2cccc(C)c2c1=O`, the IC50 in assay [1] and in assay [2] was below 100 nM throughout.
Regarding `Cc1ccccc1-n1c(Cn2nc(-c3ccc(F)c(O)c3)c3c(N)ncnc32)cc2cccc(C)c2c1=O`, the IC50 in assay [1] and in assay [2] was below 100 nM each time.
With `Cc1ccccc1-n1c(Cn2nc(-c3ccc(O)c(F)c3)c3c(N)ncnc32)cc2cccc(C)c2c1=O`, the IC50 in assay [1] and in assay [2] was below 100 nM in each case.
As to `Cc1ccccc1-n1c(Cn2nc(-c3cc(O)cc(F)c3)c3c(N)ncnc32)cc2nccc(C)c2c1=O`, the IC50 in assay [1] and in assay [2] was below 100 nM throughout.
As for `Cc1cccc2cc(Cn3nc(-c4cn[nH]c4)c4c(N)ncnc43)n(-c3ccccc3C(C)C)c(=O)c12`, the IC50 in assay [1] and in assay [2] was below 100 nM throughout.
With `Cc1ccccc1-n1c(C(C)Nc2ncnc3[nH]cnc23)cc2cccc(C)c2c1=O` (stereo unspecified), the IC50 in assay [1] and in assay [2] was below 100 nM throughout.
Compound `Cc1cccc2cc(Cn3nc(-c4ccc(O)c(F)c4)c4c(N)ncnc43)n(-c3ccccc3F)c(=O)c12` returned an IC50 in assay [1] below 100 nM.
As for `Cc1cccc2cc(Cn3nc(-c4cc(O)cc(F)c4)c4c(N)ncnc43)n(-c3ccccc3Cl)c(=O)c12`, the IC50 in assay [1] and in assay [2] was below 100 nM throughout.
Consider `Cc1cccc2cc(Cn3nc(-c4cccc(O)c4)c4c(N)ncnc43)n(C(C)C)c(=O)c12`, for which the IC50 in assay [1] and in assay [2] was below 100 nM each time.
Compound `CC(=O)Nc1nc2ccc(-c3nn(Cc4cc5cccc(C)c5c(=O)n4-c4ccccc4C)c4ncnc(N)c34)cc2s1` displayed an IC50 in assay [1] below 100 nM.
For the compound `Cc1ccccc1-n1c(Cn2nc(C=CC(N)=O)c3c(N)ncnc32)cc2cccc(C)c2c1=O`, the IC50 in assay [1] and in assay [2] was below 100 nM each time.

The record behind these values is the Kinase Knowledgebase extract (Sharma et al. 2016).
